From patent US20110039787A1, “COMPOSITIONS, KITS AND METHODS FOR TREATING BENIGN PROSTATE HYPERPLASIA” (priority 2009, published 2011)
Square brackets hold non-standard residues; d marks the D form. Peptide text beside a SMILES is read from it. * marks the point of attachment. dPhe(4-NHCONH2) = NC(=O)Nc1ccc(C[C@@H](N)C(=O)O)cc1; Dihydroorotyl(S) = O=C1C[C@@H](C(=O)*)NC(=O)N1; dPhe(4-Cl) = N[C@H](Cc1ccc(Cl)cc1)C(=O)O; Phe(4-NH2) = Nc1ccc(C[C@H](N)C(=O)O)cc1; d2Nal = N[C@H](Cc1ccc2ccccc2c1)C(=O)O; Lys(iPr) = CC(C)NCCCC[C@H](N)C(=O)O; d3Pal = N[C@H](Cc1cccnc1)C(=O)O

Legend:
testosterone = test: Serum testosterone concentration-time profile (LC-MS/MS); type: in vivo, men; settings: for Number of patients with testosterone below the castration level 0.5 ng/mL at one or more time-points / Percentage of patients with testosterone below the castration level 0.5 ng/mL at one or more time-points: up to Day 42; for Mean time to second return of testosterone to baseline interval (after the second administration): calculated, not measured values
men with BPH = settings: in vivo
Protocol: The study population was men with BPH with: a prostate volume larger than 30 mL, a maximal uroflow of 12 mL/s (with some exceptions), an IPSS score of at least 13, serum prostatic specific antigen (PSA) below 10 ng/mL, and no evidence of prostate cancer. Altogether, 52 patients with BPH were randomly assigned to four parallel groups of 13 patients each.
The patients were randomly allocated to receive either: one injection of 64 mg degarelix on Day 0 (hereinafter termed “64 mg”); one injection of 32 mg degarelix on Day 0 and one on Day 14 (hereinafter termed “32+32 mg”); one injection of 32 mg degarelix on Day 0 (hereinafter termed “32 mg”); or one injection of 16 mg degarelix on Day 0 and one on Day 14 (hereinafter termed “16+16 mg”).
In order to evaluate the effects of degarelix on urinary morbidity, sexual function and overall quality of life (QoL) due to urinary condition, patient reported questionnaires (IPSS, IIEF, and IPSS-global QoL) were used. The questionnaires were answered by the patient at the clinic visits, in line with standard procedures.
The IIEF questionnaire evaluated sexual dysfunction associated with treatment. […] Question numbers one to ten are scored on a six-point scale from zero ('No sexual activity') to five (Almost always to always'). Question numbers 11-15 are scored on a five-point scale from one (Almost never or never') to five (Almost always to always'). […]

[1] = 16+16 mg, after the first administration
[2] = 16+16 mg, after the second administration
[3] = 32+32 mg, after the first administration
[4] = 32+32 mg, after the second administration
[5] = first dose of the 32+32 mg combined with the single dose 32 mg data

CC(=O)N[C@H](Cc1ccc2ccccc2c1)C(=O)N[C@H](Cc1ccc(Cl)cc1)C(=O)N[C@H](Cc1cccnc1)C(=O)N[C@@H](CO)C(=O)N[C@@H](Cc1ccc(NC(=O)[C@@H]2CC(=O)NC(=O)N2)cc1)C(=O)N[C@H](Cc1ccc(NC(N)=O)cc1)C(=O)N[C@@H](CC(C)C)C(=O)N[C@@H](CCCCNC(C)C)C(=O)N1CCC[C@H]1C(=O)N[C@H](C)C(N)=O [Degarelix, D-Alaninamide, N-acetyl-3-(2-naphthalenyl)-D-alanyl-4-chloro-D-phenylalanyl-3-(3-pyridinyl)-D-alanyl-L-seryl-4-[[[(4S)-hexahydro-2,6-dioxo-4-pyrimidinyl]carbonyl]amino]-L-phenylalanyl-4-[(aminocarbonyl)amino]-D-phenylalanyl-L leucyl-N6-(1-methylethyl)-L-lysyl-L-prolyl] (Ac-[d2Nal][dPhe(4-Cl)][d3Pal]S[Phe(4-NH2)](Dihydroorotyl(S))[dPhe(4-NHCONH2)]L[Lys(iPr)]P[dA]-NH2)
Greatest change from baseline in mean testosterone (testosterone; 32 mg): -4.2 ng/mL
Mean minimal value of testosterone (Cnadir) (testosterone; 32 mg): 0.9 ng/mL
Mean time-point (tnadir) to Cnadir of testosterone (testosterone; 32 mg): 1.3 days
Lowest mean testosterone level (testosterone; 32 mg, Day 1, SD 0.5): 0.9 ng/mL
Mean testosterone level on Day 42 (testosterone; 32 mg, Day 42 (5.2 at baseline)): 5.3 ng/mL
Mean time for first return of testosterone to baseline interval after the first administration (testosterone; 32 mg, SD=5.2): 9.1 days
Mean area of testosterone concentrations below 0.5 ng/mL (testosterone; 32 mg, range 0.0-0.1): 0.0 ng·days/mL
Number of patients with testosterone below the castration level 0.5 ng/mL at one or more time-points (testosterone; 32 mg): 3 patients
Percentage of patients with testosterone below the castration level 0.5 ng/mL at one or more time-points (testosterone; 32 mg): 25%
Greatest change from baseline in mean testosterone (testosterone; 64 mg): -4.7 ng/mL
Mean minimal value of testosterone (Cnadir) (testosterone; 64 mg): 0.4 ng/mL
Mean time-point (tnadir) to Cnadir of testosterone (testosterone; 64 mg): 8.8 days
Lowest mean testosterone level (testosterone; 64 mg, Day 1, SD 0.2): 0.4 ng/mL
Mean testosterone level on Day 42 (testosterone; 64 mg, Day 42 (5.2 at baseline)): 3.0 ng/mL
Patients still below testosterone 0.5 ng/mL on Day 42 (testosterone; 64 mg, Day 42, of the 8 patients suppressed): Five
Mean area of testosterone concentrations below 0.5 ng/mL (testosterone; 64 mg, range 0.0-15.2): 4.4 ng·days/mL
Number of patients with testosterone below the castration level 0.5 ng/mL at one or more time-points (testosterone; 64 mg): 9 patients
Percentage of patients with testosterone below the castration level 0.5 ng/mL at one or more time-points (testosterone; 64 mg): 69%
Greatest change from baseline in mean testosterone (testosterone; 16+16 mg): -4.0 ng/mL
Lowest mean testosterone level (testosterone; 16+16 mg, Day 1, SD 0.5): 1.4 ng/mL
Mean testosterone level on Day 42 (testosterone; 16+16 mg, Day 42 (5.5 at baseline)): 4.5 ng/mL
Mean time for first return of testosterone to baseline interval after the first administration (testosterone; 16+16 mg, SD=2.8): 6.1 days
Mean time to second return of testosterone to baseline interval (after the second administration) (testosterone; 16+16 mg, SD=33.9): 19.5 days
Mean minimal value of testosterone (Cnadir) (testosterone; [1]): 1.4 ng/mL
Mean time-point (tnadir) to Cnadir of testosterone (testosterone; [1]): 1.1 days
Mean minimal value of testosterone (Cnadir) (testosterone; [2]): 2.0 ng/mL
Mean time-point (tnadir) to Cnadir of testosterone (testosterone; [2]): 4.0 days
Mean area of testosterone concentrations below 0.5 ng/mL (testosterone; 16+16 mg, range 0.0-0.0): 0.0 ng·days/mL
Number of patients with testosterone below the castration level 0.5 ng/mL at one or more time-points (testosterone; 16+16 mg): 2 patients
Percentage of patients with testosterone below the castration level 0.5 ng/mL at one or more time-points (testosterone; 16+16 mg): 15%
Greatest change from baseline in mean testosterone (testosterone; 32+32 mg): -4.1 ng/mL
Lowest mean testosterone level (testosterone; 32+32 mg, Day 17 (after second administration), SD 0.3): 0.4 ng/mL
Subjects that had not regained testosterone levels >0.5 ng/mL at Day 42 (testosterone; 32+32 mg, Day 42): Three
Mean testosterone level on Day 42 (testosterone; 32+32 mg, Day 42 (4.5 at baseline)): 2.7 ng/mL
Mean time for first return of testosterone to baseline interval after the first administration (testosterone; 32+32 mg, SD=2.6): 9.1 days
Mean time to second return of testosterone to baseline interval (after the second administration) (testosterone; 32+32 mg, SD=83.5): 64.2 days
Mean minimal value of testosterone (Cnadir) (testosterone; [3]): 0.6 ng/mL
Mean time-point (tnadir) to Cnadir of testosterone (testosterone; [3]): 3.2 days
Mean minimal value of testosterone (Cnadir) (testosterone; [4]): 0.4 ng/mL
Mean time-point (tnadir) to Cnadir of testosterone (testosterone; [4]): 4.3 days
Mean area of testosterone concentrations below 0.5 ng/mL (testosterone; 32+32 mg, range 0.0-15.3): 2.8 ng·days/mL
Number of patients with testosterone below the castration level 0.5 ng/mL at one or more time-points (testosterone; 32+32 mg): 9 patients
Percentage of patients with testosterone below the castration level 0.5 ng/mL at one or more time-points (testosterone; 32+32 mg): 75%
Number of patients castrated (testosterone below 0.5 ng/mL), for generally 2-4 days (testosterone; [5]): 8 patients
Percentage of patients castrated (testosterone below 0.5 ng/mL), for generally 2-4 days (testosterone; [5]): 33%
Larger area below and longer time to return to the testosterone baseline interval (testosterone; groups given a total of 64 mg compared to the total dose 32 mg): more than 2 fold
Change of IIEF scores (men with BPH): mild decrease
